Laboratory results published in US20230257383A1, “COMPOUND SERVING AS BTK INHIBITOR, PREPARATION METHOD THEREFOR, AND USE THEREOF” (CHENGDU HYPERWAY PHARMACEUTICALS CO., LTD., priority 2020, published 2023).

Tests used:
[1] = Liver microsome metabolic stability test (human); type: in vitro ADME; details: for microsomal CLint: read-out: CLint (μL/min/mg) Human
Protocol: 1: To the sample wells of T0, T5, T10, T20, T30, T60 and NCF60, 10 μL of the test or reference working solution and 80 μL of microsome working solution (hepatic microsome with a protein concentration of 0.5 mg/mL) were added, and to Blank60 well, only the microsome working solution was added. Then samples of the Blank60, T5, T10, T20, T30 and T60 other than TO and NCF60 were placed in a 37° C. water bath and pre-incubated for about 10 min.
2: To the TO sample well, 300 μL of stop solution (containing 200 ng/mL tolbutamide and 200 ng/mL labetalol in acetonitrile solution) was added first, followed by 10 μL of NADPH regeneration system working solution.
3: After the pre-incubation of Blank60, T5, T10, T20, T30 and T60 incubation plates, 10 μL of NADPH regeneration system working solution was added to each sample well to start the reaction, and 10 μL of 100 mM potassium phosphate buffer was added to the NCF60 sample well.
4: After incubation for an appropriate time (such as 5, 10, 20, 30 and 60 min), to each test sample well and control well of the Blank60, T5, T10, T20, T30, T60 and NCF60 plates, 300 μL of stop solution was added to terminate the reaction.
5: All sample plates were shaken to mix well and centrifuged at 4000 rpm for 20 min, and 100 μL of the supernatant of the test sample or control sample was taken and diluted with 300 μL of pure water for LC-MS/MS analysis.
6: Data analysis: T1/2 and CLint(mic) (μL/min/mg) values were calculated according to the first-order elimination kinetics. The first-order elimination kinetics equation was: […]

HER2 kinase = HER2 kinase (Homo sapiens, UniProt P04626); assay: HER2 kinase activity test (HTRF); type: biochemical
HER2 kinase, sequence (P04626 23-1255): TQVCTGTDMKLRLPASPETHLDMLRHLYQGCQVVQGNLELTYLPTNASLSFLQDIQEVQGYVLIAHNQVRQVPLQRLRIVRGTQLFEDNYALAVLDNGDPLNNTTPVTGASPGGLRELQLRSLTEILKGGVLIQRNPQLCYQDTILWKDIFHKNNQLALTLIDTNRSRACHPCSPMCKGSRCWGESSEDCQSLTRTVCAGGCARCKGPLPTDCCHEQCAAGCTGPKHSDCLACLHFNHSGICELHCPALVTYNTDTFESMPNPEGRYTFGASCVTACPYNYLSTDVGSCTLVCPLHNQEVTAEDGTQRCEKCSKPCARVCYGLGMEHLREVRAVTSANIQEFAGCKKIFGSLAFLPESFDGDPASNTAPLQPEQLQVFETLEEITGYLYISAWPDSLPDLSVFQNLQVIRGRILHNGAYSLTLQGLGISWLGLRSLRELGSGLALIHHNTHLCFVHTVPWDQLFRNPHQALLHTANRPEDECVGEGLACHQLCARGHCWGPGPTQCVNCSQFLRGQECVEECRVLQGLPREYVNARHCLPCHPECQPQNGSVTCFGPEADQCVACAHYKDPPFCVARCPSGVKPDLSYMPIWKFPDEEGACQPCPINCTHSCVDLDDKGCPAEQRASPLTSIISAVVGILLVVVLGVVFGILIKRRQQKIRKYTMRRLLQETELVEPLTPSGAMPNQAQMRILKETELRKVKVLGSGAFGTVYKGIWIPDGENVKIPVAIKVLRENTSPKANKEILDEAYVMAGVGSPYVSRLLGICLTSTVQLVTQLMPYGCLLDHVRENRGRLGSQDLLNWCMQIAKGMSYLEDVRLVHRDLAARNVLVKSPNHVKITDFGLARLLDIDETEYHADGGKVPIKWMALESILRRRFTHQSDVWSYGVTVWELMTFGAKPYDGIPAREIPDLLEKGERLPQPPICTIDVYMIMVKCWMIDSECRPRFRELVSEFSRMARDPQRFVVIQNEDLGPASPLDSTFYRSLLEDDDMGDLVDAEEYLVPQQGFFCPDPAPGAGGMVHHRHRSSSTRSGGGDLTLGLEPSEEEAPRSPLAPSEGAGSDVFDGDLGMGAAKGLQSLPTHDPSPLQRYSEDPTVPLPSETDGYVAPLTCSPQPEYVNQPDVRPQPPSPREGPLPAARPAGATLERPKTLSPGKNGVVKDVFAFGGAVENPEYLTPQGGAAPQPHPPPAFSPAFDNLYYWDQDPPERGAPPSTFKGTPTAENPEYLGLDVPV
Protocol: Test Example 5: HER2 Kinase Activity Test
1. Her2 Kinase test steps
2) 100 nl of the diluted compound working solution was transferred into each well of a reaction plate (784075, Greiner) by an Echo 550 liquid hander. The reaction plate was sealed with a sealing film and centrifuged at 1000 g for 1 min.
3) 1 ng/μL Her2 kinase solution was prepared with 1× kinase reaction buffer.
4) 5 μL of the kinase solution prepared above was added to each well of the reaction plate. The plate was sealed with a sealing film, centrifuged at 1000 g for 1 min, and placed at room temperature for 10 min.
5) A mixture of 2× kinase substrate and ATP was prepared by using 1× kinase reaction buffer, and the 2× Her2 kinase substrate was 2 μM TK-substrate-biotin and 4 μM ATP
6) 5 μL of the mixture of 2× TK-substrate-biotin and ATP was added to the reaction plate, centrifuged at 1000 g for 30 seconds to start the reaction.
7) Her2 kinase test was performed at room temperature for 50 min of reaction.
9) 10 μL of the mixture of Sa-XL 665 and TK-antibody-Cryptate was added to each well, centrifuged at 1000 g for 30 seconds, and reacted at room temperature for 1 h.
10) The fluorescence signals at 615 nm (Cryptate) and 665 nm (XL665) were read by Envision 2104.
1) The percentage inhibition was calculated as follows: […]
Ratiopositive control: average value of Ratio 665/615 nm of all positive control wells in the plate.
Rationegative control: average value of Ratio 665/615 nm of all negative control wells in the plate.
2) Calculation of IC50 and fitting of dose-effect curve of compound:
The IC50 of the compound was derived using the following nonlinear fitting formula with GraphPad 6.0.
Y=Bottom+(Top−Bottom)/(1+10^((Log IC50−X)×HillSlope)).
X: log value of compound concentration; Y: percentage inhibition of compound

[2] = test system: NCI-N87 cell proliferation; assay: In vitro cell proliferation inhibitory activity test (CTG), NCI-N87; type: cell-based; details: Homo sapiens
Protocol: (§1) Test Example 4: In Vitro Cell Proliferation Inhibitory Activity Test
(§2) Cells were cultured in 1640 medium, added with 10% inactivated FBS and 1% double antibiotics, and cultured at 37° C. and 5% CO2.
(§3) (1) Cells were routinely cultured until the cell density was 80%-90%, and the cells were harvested when their number reached the requirement.
(§4) (2) Cells were resuspended with corresponding culture medium, counted, and prepared into cell suspension at appropriate density.
(§5) (3) The cell suspension was added to a 96-well plate, 100 μL per well.
(§6) (4) Cells were cultured overnight in a 37° C., 5% CO2 incubator.
(§7) (1) The compounds to be tested were diluted with DMSO to make a stock solution with a final concentration of 20 mM for later use.
(§8) (2) The stock solution was diluted 10 times from 20 mM to 2 mM with DMSO, and then diluted 3 times from 2 mM to 9 concentrations.
(§9) (3) The blank control wells were cells plus 0.5% DMSO, as high-reading control wells.
(§10) (4) Wells with no cells and only medium were used as low-reading control wells.
(§11) 4: Cell treatment with compound
(§12) (1) 24 h after the cells were plated, the compounds acted alone, and 99 μL of growth medium was added to each well, followed by 1 μL of the compound prepared in step 3. The plate was shaken gently to mix uniformly, and then placed in a 37° C., 5% CO2 incubator.
(§13) (2) The cell plate was placed in an incubator for 72 h.
(§14) 5: Detection by CTG method
(§15) (1) The cell plate to be tested was placed at room temperature for 30 min, and 100 μL of medium was discarded from each well.
(§16) (2) 100 μL of CTG reagent (CelltiterGlo kit) was added to each well, placed on a fast shaker for 2 min, and stood at room temperature in the dark for 30 min.
(§17) (3) The chemiluminescent signal value was read with the Envision instrument.
(§18) IC50 was calculated by using GraphPad Prism 8 software. The IC50 (half inhibitory concentration) of the compound was derived using the following nonlinear fitting formula, and the results are shown in the following table:
(§19) Y=Bottom+(Top−Bottom)/(1+10^((Log IC50−X)×HillSlope))
(§20) X: log value of compound concentration, Y: inhibition rate (% inhibition)
(§21) Inhibition rate (% inhibition)=(reading of high-reading control well-reading of compound well)/(reading of high-reading control well-reading of low-reading control well)×100

DOHH2 cell proliferation = assay: In vitro cell proliferation inhibitory activity test (CTG), DOHH2; type: cell-based; details: Homo sapiens, DOHH-2
Protocol: as §1, §2, §3, §4, §5, §6, §7, §8, §9, §10, §11, §12, §13, §14, §15, §16, §17, §18, §19, §20, §21

% Remaining (60 min) Human ([1]; 60 min) [%]	half-life ([1]; liver microsomes, 0.5 mg/mL protein, read-out: T1/2 (min) Human) [min]	Structure (SMILES)	microsomal CLint ([1]; liver microsomes) [µL/min/mg]	IC50 (HER2 kinase) [nM]	IC50 [2] [nM]	IC50 (DOHH2 cell proliferation) [nM]
–	–	Cc1cc(Nc2ncnc3ccc(NC4=NC(C)(C)CO4)cc23)ccc1Oc1ccn2ncnc2c1 [Tucatinib, reference compound]	43.7	3	26	–
46.2	61.2	Nc1nccn2c(C34CCC(CO)(CC3)OC4)nc(-c3ccc(C(F)(F)c4ccccc4F)cc3)c12 [Example 145]	22.7	1.69	37.5	–
–	–	Nc1nccn2c(C34CCC(CO)(CC3)OC4)nc(-c3ccc(C(F)(F)c4ccccc4Cl)cc3)c12 [Example 155]	41.7	9.44	–	–
–	–	Nc1nccn2c(C3CCC(CO)OC3)nc(-c3ccc(C(F)(F)c4ccccc4)cc3)c12 (single isomer, unassigned) [Example 111-P1]	–	–	–	116
–	–	Nc1nccn2c(C34CCC(CO)(CC3)OC4)nc(-c3ccc(C(F)(F)c4cccc(Cl)c4F)cc3)c12 [Example 152]	45.9	4.19	43.4	–
–	–	Nc1nccn2c(C34CCC(CO)(CC3)OC4)nc(-c3ccc(C(F)(F)c4ccccc4)cc3)c12 [Example 125]	14.6	–	–	114
